Read-outs that look alike come from different tables or passages of the source.
Experiments:
P-gp = settings: literature reports; cited from earlier work
P-gp (mdr1a/1b) [1] = biological target: T1, P-gp (mdr1a/1b) (Mus musculus, UniProt P21447); experiment: in vivo; settings: male, iv, 5 mg/kg
in vivo = settings: male, mouse, iv, 5 mg/kg
[2] = Blood-brain distribution of H1-antagonists in WT mice and mdr1a/1b KO mice; settings: male, FVB, mouse, brain, iv, 5 mg/kg
P-gp (mdr1a/1b) [3] = biological target: T1, P-gp (mdr1a/1b); experiment: as above; settings: WT and KO mice, post i.v. dose
P-gp (mdr1a/1b) [4] = biological target: T1, P-gp (mdr1a/1b); settings: male, FVB and mdr1a/1b KO, in vivo
MDR1 (P-gp) [5] = biological target: T2, MDR1 (P-gp) (Homo sapiens, UniProt P08183)
MDR1 (P-gp) [6] = biological target: T2, MDR1 (P-gp); experiment: in vitro; settings: MDCK-MDR1

T2 sequence (P08183 whole entry): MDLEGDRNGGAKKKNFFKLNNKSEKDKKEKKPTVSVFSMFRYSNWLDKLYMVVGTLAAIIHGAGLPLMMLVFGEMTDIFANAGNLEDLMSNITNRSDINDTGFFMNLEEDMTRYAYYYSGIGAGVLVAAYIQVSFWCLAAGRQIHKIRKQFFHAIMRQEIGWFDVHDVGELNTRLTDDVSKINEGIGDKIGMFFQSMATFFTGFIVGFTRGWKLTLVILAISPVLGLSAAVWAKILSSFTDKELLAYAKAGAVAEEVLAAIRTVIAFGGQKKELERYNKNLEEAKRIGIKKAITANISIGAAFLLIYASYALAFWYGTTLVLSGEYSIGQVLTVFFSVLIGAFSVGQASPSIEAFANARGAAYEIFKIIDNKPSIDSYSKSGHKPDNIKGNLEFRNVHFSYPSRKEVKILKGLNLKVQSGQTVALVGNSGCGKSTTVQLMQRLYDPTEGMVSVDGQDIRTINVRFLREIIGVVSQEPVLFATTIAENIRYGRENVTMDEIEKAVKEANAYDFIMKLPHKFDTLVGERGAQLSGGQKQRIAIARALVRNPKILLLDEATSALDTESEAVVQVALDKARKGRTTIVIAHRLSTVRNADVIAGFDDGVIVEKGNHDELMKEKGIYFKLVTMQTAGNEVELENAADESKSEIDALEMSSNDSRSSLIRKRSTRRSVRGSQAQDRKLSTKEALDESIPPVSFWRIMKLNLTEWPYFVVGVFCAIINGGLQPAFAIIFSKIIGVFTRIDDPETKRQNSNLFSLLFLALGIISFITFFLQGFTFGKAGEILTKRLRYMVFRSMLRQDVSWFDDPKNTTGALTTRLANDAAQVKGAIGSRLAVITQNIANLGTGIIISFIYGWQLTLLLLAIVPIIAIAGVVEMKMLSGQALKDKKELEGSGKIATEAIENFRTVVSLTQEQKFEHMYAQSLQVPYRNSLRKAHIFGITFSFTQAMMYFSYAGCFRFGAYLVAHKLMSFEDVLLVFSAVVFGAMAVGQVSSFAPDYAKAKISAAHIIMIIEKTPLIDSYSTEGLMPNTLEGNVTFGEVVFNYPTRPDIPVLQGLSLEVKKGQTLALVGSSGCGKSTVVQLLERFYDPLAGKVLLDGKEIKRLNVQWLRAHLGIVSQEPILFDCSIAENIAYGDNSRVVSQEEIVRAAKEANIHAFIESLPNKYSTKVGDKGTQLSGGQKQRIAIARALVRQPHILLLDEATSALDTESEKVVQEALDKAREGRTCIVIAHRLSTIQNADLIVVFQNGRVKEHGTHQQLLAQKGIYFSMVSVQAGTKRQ
T1 sequence (P21447 whole entry): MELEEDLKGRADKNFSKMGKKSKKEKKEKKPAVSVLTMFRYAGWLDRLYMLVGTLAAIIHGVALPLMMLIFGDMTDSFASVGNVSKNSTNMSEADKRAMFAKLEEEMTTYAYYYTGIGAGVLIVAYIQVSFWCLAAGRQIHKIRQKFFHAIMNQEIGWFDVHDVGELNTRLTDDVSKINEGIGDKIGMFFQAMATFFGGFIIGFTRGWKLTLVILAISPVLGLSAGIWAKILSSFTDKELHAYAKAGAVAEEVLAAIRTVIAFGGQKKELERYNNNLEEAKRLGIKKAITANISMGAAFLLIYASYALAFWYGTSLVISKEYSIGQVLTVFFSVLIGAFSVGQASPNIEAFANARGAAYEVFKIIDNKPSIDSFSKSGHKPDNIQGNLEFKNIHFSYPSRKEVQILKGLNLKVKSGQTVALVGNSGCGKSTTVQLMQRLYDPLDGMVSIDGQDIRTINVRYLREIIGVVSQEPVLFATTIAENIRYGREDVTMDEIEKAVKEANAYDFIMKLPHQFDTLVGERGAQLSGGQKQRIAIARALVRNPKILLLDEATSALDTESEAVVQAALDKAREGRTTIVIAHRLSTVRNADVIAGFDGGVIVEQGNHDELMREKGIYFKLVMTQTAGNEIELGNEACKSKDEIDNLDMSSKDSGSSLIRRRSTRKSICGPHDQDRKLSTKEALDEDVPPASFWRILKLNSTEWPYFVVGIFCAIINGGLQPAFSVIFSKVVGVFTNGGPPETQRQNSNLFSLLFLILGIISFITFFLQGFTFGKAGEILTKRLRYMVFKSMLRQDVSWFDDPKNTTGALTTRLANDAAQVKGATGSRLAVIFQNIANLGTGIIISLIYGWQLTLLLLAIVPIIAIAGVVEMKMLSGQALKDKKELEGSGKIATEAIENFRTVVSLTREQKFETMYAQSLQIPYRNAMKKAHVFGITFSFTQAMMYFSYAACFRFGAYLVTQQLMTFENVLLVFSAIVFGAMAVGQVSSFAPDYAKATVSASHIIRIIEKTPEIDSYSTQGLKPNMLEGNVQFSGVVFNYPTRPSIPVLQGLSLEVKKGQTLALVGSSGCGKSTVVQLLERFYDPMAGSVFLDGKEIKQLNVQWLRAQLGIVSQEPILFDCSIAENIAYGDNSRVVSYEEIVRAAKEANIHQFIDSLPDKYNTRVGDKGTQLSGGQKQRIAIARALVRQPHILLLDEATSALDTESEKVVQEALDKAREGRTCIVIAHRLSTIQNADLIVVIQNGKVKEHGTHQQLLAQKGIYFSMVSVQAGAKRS

For `CC(C)(C)c1ccc(C(O)CCCN2CCC(C(O)(c3ccccc3)c3ccccc3)CC2)cc1` (stereo not drawn) [terfenadine], the “P-gp substrate or inhibitor status” value (P-gp) is given as “an inhibitor of and a substrate for P-gp in vitro”.

Work on `OCCOCCN1CCN(C(c2ccccc2)c2ccc(Cl)cc2)CC1` (stereo not drawn) [Hydroxyzine] yielded a Kp (P-gp (mdr1a/1b) [1]; FVB and mdr1a/1b KO) of 1.2, a Kp (P-gp (mdr1a/1b) [1]; FVB) of 3.8 and a Kp (P-gp (mdr1a/1b) [1]; mdr1a/1b KO) of 4.8. For the same compound, the Vd (in vivo; FVB and mdr1a/1b KO, plasma) was 2.4 to 3.7 L/kg, the clearance (in vivo; FVB and mdr1a/1b KO, plasma) was 70 to 80 mL/min/kg and the Vd (in vivo; FVB, plasma) was 3.7 L/kg. It also gave a clearance (in vivo; FVB, plasma) of 80 mL/min/kg, a half-life (in vivo; FVB, plasma) of 1.7 h and a Vd (in vivo; mdr1a/1b KO, plasma) of 2.4 L/kg. It also gave a clearance (in vivo; mdr1a/1b KO, plasma) of 70 mL/min/kg, a half-life (in vivo; mdr1a/1b KO, plasma) of 2.2 h and a concentration at 2 min [2] of about 8000 ng/mL. The “time of peak brain tissue concentration” value (P-gp (mdr1a/1b) [3]) was 2 min and the “AUC ratio of brain tissue to plasma (WT vs. KO comparison)” value (P-gp (mdr1a/1b) [4]) was “approximately 1”.

In the case of `Cc1ccc(/C(=C\CN2CCCC2)c2ccccn2)cc1` [Triprolidine], the Kp (P-gp (mdr1a/1b) [1]; FVB and mdr1a/1b KO) is reported as 0.6, the Kp (P-gp (mdr1a/1b) [1]; FVB) is reported as 6.2 and the Kp (P-gp (mdr1a/1b) [1]; mdr1a/1b KO) is reported as 3.5. For the same compound, the Vd (in vivo; FVB and mdr1a/1b KO, in vivo) was about 2 L/kg, the clearance (in vivo; FVB and mdr1a/1b KO, in vivo) was 119 to 134 mL/min/kg and the Vd (in vivo; FVB, in vivo) was 2 L/kg. It also gave a clearance (in vivo; FVB, in vivo) of 119 mL/min/kg, a half-life (in vivo; FVB, in vivo) of 0.3 h and a Vd (in vivo; mdr1a/1b KO, in vivo) of 2.3 L/kg. The clearance (in vivo; mdr1a/1b KO, in vivo) was 134 mL/min/kg, the half-life (in vivo; mdr1a/1b KO, in vivo) was 0.5 h and the “MDR1 Substrate?” value (MDR1 (P-gp) [5]; MDCK-MDR1) was “No”. For the same compound, the “MDR1 Substrate?” value (MDR1 (P-gp) [5]; human, MDCK-MDR1, 5 h, 2 µM) was “not MDR1 substrates”, the Papp A→B at 5 hr, 2 μM (MDR1 (P-gp) [6]; dog) was 25.9 ×10⁻⁶ cm/s and the Papp B→A at 5 hr, 2 μM (MDR1 (P-gp) [6]; dog) was 24.5 ×10⁻⁶ cm/s. For the same compound, the efflux ratio at 5 hr, 2 μM (MDR1 (P-gp) [6]; human) was 0.9, the “AUC ratio of brain tissue to plasma (WT vs. KO comparison)” value (P-gp (mdr1a/1b) [4]) was “approximately 1” and the “time of peak brain tissue concentration” value (P-gp (mdr1a/1b) [4]; iv) was 2 min.

Source: patent US20030144336A1, “Method of selecting nonsedating H1-antagonists” (priority 2001, published 2003)
